Read-outs that look alike come from different tables or passages of the source.
Key:
HDF cells [1] = test: Summary of uses and toxic effects deduced from the cell assays (Table 1); type: cell-based, Human
Outline: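 HDF cells exposed to test substances at a given dosage for 24 h; uses and toxicity inferred from free-radical scavenging, mitochondrial dehydrogenase activity, IL-1β/IL-6 production (basal or induced by 100 µM H2O2), proliferation under standard growth conditions, and senescence-like morphology.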

[2] = tested on: Human dermal fibroblasts (HDF); test: Mitochondrial dehydrogenase activity (WST-1 formazan assay) in HDF cells; details: for Revitalizing agent: 24 hours; for activity at 1 µM / activity at 10 µM: Homo sapiens, Fibroblast, read-out: % mitochondrial dehydrogenase activity ± SD
interleukin 6 (IL-6) = test: Inflammatory cytokines in cell supernatant (Mosaic ELISA microarray): IL-6; type: cell-based, Human; details: for IL-6 ng/(ml* No. of cells from photo) ± SD: 24 hours; for IL-6 production (effect in words): 1-10 µM
HDF cells [3] = test: Evaluation of cell proliferation (counting of Sirius Red stained cells in photographs); details: for No. of cells from photo ± SD: 24 hours
[4] = tested on: collagen produced by HDF cells; test: Quantity of collagen produced by the cells (elution of Sirius Red); details: 1-10 µM (1 µM and 10 µM)
[5] = Anti-radical activity (decay of the DPPH radical); type: biochemical; details: for Anti-radical (skin protective): 24 hours
Outline: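 Test substance in ethanol mixed 1:1 with 200 µM DPPH (stock concentrations), in quadruplicate. Absorbance read at 530 nm after 30 min, with vitamin C and ethanol-only controls. IC50 from variable-slope Hill regression of dose-activity curves.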

interleukin 1β (IL-1β) = test: Inflammatory cytokines in cell supernatant (Mosaic ELISA microarray): IL-1β; type: cell-based, Human; details: for IL-1β ng/(ml* No. of cells from photo) ± SD: 24 hours; for IL-1β production (effect in words): 1-10 µM
[6] = Dose 1 µm (coptisine: 1 pm [sic]), 24 hours
[7] = Dose 1 µm (coptisine: 1 pm [sic])

For `c1cc2c(c3c1C[C@H]1c4cc5c(cc4CCN1C3)OCO5)OCO2` [stylopine], the Cytotoxic (HDF cells [1]) was “No”, the Irritant (HDF cells [1]) was “No” and the “Anti-fibrotic (prevention of scar formation, also from acne)” value (HDF cells [1]; [6]) was “Yes (↓collagen, ↓IL-6, ↓IL-1β)”. For the same compound, the “Cytoprotective (antioxidant, anti-inflammatory and anti-ageing; useful also in the treatment of acne)” value (HDF cells [1]; [6]) was “Yes (↓IL-6, ↓IL-1β)”, the Wound-healing (HDF cells [1]; [6]) was “Yes (↑profil)” and the “Anti-fibrotic (prevention of scar formation, also from acne)” value (HDF cells [1]; Dose 10 µm, 24 hours) was “Yes (↓collagen, ↓IL-6. ↓IL-1β)”. The “Cytoprotective (antioxidant, anti-inflammatory and anti-ageing; useful also in the treatment of acne)” value (HDF cells [1]; Dose 10 µm, 24 hours) was “Yes (↓IL-6, ↓IL-1β)”, the Cytotoxic (HDF cells [1]; Dose 10 µm, 24 hours) was “No” and the Irritant (HDF cells [1]; Dose 10 µm, 24 hours) was “No”. For the same compound, the Wound-healing (HDF cells [1]; Dose 10 µm, 24 hours) was “No”, the “concentrations at which no toxic (cytotoxic and irritant) effects are shown” value (HDF cells [1]; exposure for 24 hours) was “less than or equal to 10 µM” and the “concentrations below which no significant effects on mitochondrial dehydrogenase activity are shown” value [2] was “below 1 µM”. The “mitochondrial dehydrogenase activity (effect in words)” value ([2]; 10 µM, exposure time 42 h) was “increased with respect to the control”, the “mitochondrial dehydrogenase activity (effect in words)” value ([2]; 100 µM) was “less marked stimulation of mitochondrial dehydrogenase activity” and the Revitalizing agent [2, 7] was “Yes**”. The Revitalizing agent ([2]; Dose 10 µm) was “Yes”, the activity at 1 µM ([2]; 18 h) was 105 ± 9.5% and the activity at 10 µM ([2]; 18 h) was 107 ± 3%. It also gave an activity at 1 µM ([2]; 42 h) of 100 ± 15.8%, an activity at 10 µM ([2]; 42 h) of 151 ± 12.8% and an activity at 1 µM ([2]; 46 h) of 95.7%. The activity at 10 µM ([2]; 46 h) was 138 ± 23.9%, the “mitochondrial dehydrogenase activity (effect in words)” value ([2]; between 1 and 100 µM, exposure time 18 h) was “non-significant tendency to stimulate mitochondrial dehydrogenase activity in a dose-dependent manner” and the “mitochondrial dehydrogenase activity (effect in words)” value ([2]; fibroblast cells, higher doses) was “inhibit mitochondrial dehydrogenase activity”. For the same compound, the “mitochondrial dehydrogenase activity (effect in words)” value ([2]; fibroblast cells, low dosage) was “stimulate mitochondrial dehydrogenase activity”, the “IL-6 ng/(ml* No. of cells from photo) ± SD” value (interleukin 6 (IL-6); 1 µM, 34 ng/ml TGF-β1) was 447±8 ng/(ml* No. of cells from photo) and the “IL-6 ng/(ml* No. of cells from photo) ± SD” value (interleukin 6 (IL-6); 1 µM, 100 µM H2O2) was 583±25 ng/(ml* No. of cells from photo). For the same compound, the “IL-6 ng/(ml* No. of cells from photo) ± SD” value (interleukin 6 (IL-6); 1 µM, Standard conditions) was 868±62 ng/(ml* No. of cells from photo), the “IL-6 ng/(ml* No. of cells from photo) ± SD” value (interleukin 6 (IL-6); 10 µM, 34 ng/ml TGF-β1) was 528±33 ng/(ml* No. of cells from photo) and the “IL-6 ng/(ml* No. of cells from photo) ± SD” value (interleukin 6 (IL-6); 10 µM, 100 µM H2O2) was 449±2 ng/(ml* No. of cells from photo). For the same compound, the “IL-6 ng/(ml* No. of cells from photo) ± SD” value (interleukin 6 (IL-6); 10 µM, Standard conditions) was 961±38 ng/(ml* No. of cells from photo), the “IL-6 production (effect in words)” value (interleukin 6 (IL-6); 34 ng/ml TGF-β1) was “antagonizes the production of IL-6” and the “IL-6 production (effect in words)” value (interleukin 6 (IL-6); 100 µM H2O2) was “antagonizes the production of IL-6”. The “IL-6 production (effect in words)” value (interleukin 6 (IL-6); standard conditions) was “inhibits the production of IL-6”, the “cell proliferation (effect in words)” value (HDF cells [3]; 1 µM) was “tendency to stimulate cell proliferation” and the “No. of cells from photo ± SD” value (HDF cells [3]; 1 µM, 34 ng/ml TGF-β1) was 237±19. The “No. of cells from photo ± SD” value (HDF cells [3]; 1 µM, 100 µM H2O2) was 240±12, the “No. of cells from photo ± SD” value (HDF cells [3]; 1 µM, Standard conditions) was 234± 7 and the “No. of cells from photo ± SD” value (HDF cells [3]; 10 µM, 34 ng/ml TGF-β1) was 210±17. For the same compound, the “No. of cells from photo ± SD” value (HDF cells [3]; 10 µM, 100 µM H2O2) was 249±8, the “No. of cells from photo ± SD” value (HDF cells [3]; 10 µM, Standard conditions) was 183±12 and the “collagen production (effect in words)” value ([4]; 34 ng/ml TGF-β1) was “antagonizes the stimulation of collagen induced by 34 ng/ml TGF-β1”. For the same compound, the “collagen production (effect in words)” value ([4]; 100 µM H2O2) was “tendency to inhibit collagen production”, the “% DPPH activity” value ([5]; 1 mM, 30 minutes) was 113% and the “Anti-radical (skin protective)” value [5, 7] was “No”. The “Anti-radical (skin protective)” value ([5]; Dose 10 µm) was “No”, the “IL-1β ng/(ml* No. of cells from photo) ± SD” value (interleukin 1β (IL-1β); 1 µM, 34 ng/ml TGF-β1) was 97±3 ng/(ml* No. of cells from photo) and the “IL-1β ng/(ml* No. of cells from photo) ± SD” value (interleukin 1β (IL-1β); 1 µM, 100 µM H2O2) was 100±4 ng/(ml* No. of cells from photo). The “IL-1β ng/(ml* No. of cells from photo) ± SD” value (interleukin 1β (IL-1β); 1 µM, Standard conditions) was 159±10 ng/(ml* No. of cells from photo), the “IL-1β ng/(ml* No. of cells from photo) ± SD” value (interleukin 1β (IL-1β); 10 µM, 34 ng/ml TGF-β1) was 109±14 ng/(ml* No. of cells from photo) and the “IL-1β ng/(ml* No. of cells from photo) ± SD” value (interleukin 1β (IL-1β); 10 µM, 100 µM H2O2) was 88±10 ng/(ml* No. of cells from photo). The “IL-1β ng/(ml* No. of cells from photo) ± SD” value (interleukin 1β (IL-1β); 10 µM, Standard conditions) was 186±7 ng/(ml* No. of cells from photo), the “IL-1β production (effect in words)” value (interleukin 1β (IL-1β); 34 ng/ml TGF-β1) was “antagonizes the production of IL-1β” and the “IL-1β production (effect in words)” value (interleukin 1β (IL-1β); 100 µM H2O2) was “antagonizes the production of IL-1β”. For the same compound, the “IL-1β production (effect in words)” value (interleukin 1β (IL-1β); standard conditions) was “inhibits the production of IL-1β”.

Source: patent EP2787958B1, “CHELIDONIUM MAJUS EXTRACTS AND THEIR USE IN THE TREATMENT OF SKIN DISORDERS AND PROMOTION OF SKIN REGENERATION” (priority 2011, dated 2013)
